Experimental data from US8148056B2, “Methods of identifying modulators of GPR81 receptors” (Janssen Pharmaceutica NV, priority 2006, dated 2012).
“And” between values parts separate entries of the source, which are not always exact repeats. Identical values can stand only once. “Also recorded” adds a separate entry of the source. Counter-ions that a name gives are not always drawn. Like-named read-outs stand apart in the source and are kept apart here.

Assays:
GPR81 [1] = target: T1, GPR81 (Homo sapiens, UniProt Q9BXC0); assay: GPR81 agonist ligand activity, GTPγS binding assay (species of receptor not given); format: biochemical; set-up: expressed in transfected cells; host or cells: GPR81-expressing cells / membranes (CHO); conditions: for GPR81 agonist activity: yes/no; for stimulation of 35S-GTPγS binding in GPR81-expressing cells / cell membranes: concentration not given
Target sequence in this assay (Q9BXC0 whole entry, species assumed): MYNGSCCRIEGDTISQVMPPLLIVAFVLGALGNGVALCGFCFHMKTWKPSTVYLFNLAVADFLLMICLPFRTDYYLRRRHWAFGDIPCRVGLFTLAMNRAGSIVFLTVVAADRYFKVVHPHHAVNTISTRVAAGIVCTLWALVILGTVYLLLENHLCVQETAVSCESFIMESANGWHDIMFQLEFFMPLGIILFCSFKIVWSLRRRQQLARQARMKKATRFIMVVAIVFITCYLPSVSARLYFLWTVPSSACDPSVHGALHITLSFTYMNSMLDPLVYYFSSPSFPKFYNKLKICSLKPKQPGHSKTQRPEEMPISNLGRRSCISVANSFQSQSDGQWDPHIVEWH

GPR81 [2] = target: T1, GPR81; conditions: 5 μM forskolin
Source text: A β-galactosidase (β-gal) assay system was also used to characterize the GPR81 activation in SK-N-MC/CRE-β-gal cells stably expressing human GPR81. GPCRs that couple with Gi proteins, upon activation by agonist, inhibit cAMP accumulation, and therefore inhibit forkolin-stimulated β-gal expression. A cell line stably expressing human GPR81 was established from an SK-N-MC/CRE-β-gal cell line, which harbors a β-galactosidase β-gal) gene under the control of a cAMP-responsive element (CRE). SK-N-MC/CRE-β-gal cells were transfected with the above-described human GPR81-pCIneo construct using LipofectAmine as the transfection reagent. Two days after transfection, the cells were split into new culture dishes at different densities and grown under selection of G418 for three weeks. Single isolated clones were isolated and tested for responsiveness to L-lactate stimulation. […] The β-gal activity was assayed as described (Liu et al., Mol. Pharmacol., Vol. 67, pp. 231-240 (2005)).
Target sequence in this assay (Q9BXC0 whole entry): as the sequence (Q9BXC0 whole entry, species assumed) above

HM74 [3] = assay: cAMP inhibition-linked β-gal assay, HM74 expressing cells; format: cell-based
[4] = cAMP inhibition-linked β-gal assay, control cells; format: cell-based
GPR81 [5] = target: T1, GPR81; conditions: Tunaru et al., Nat. Med. 2003; cited from earlier work
Target sequence in this assay (Q9BXC0 whole entry, species assumed): as above

HM74A = target: T2, HM74A (Homo sapiens, UniProt Q8TDS4); assay: 35S-GTPγS binding assay, HM74A-expressing CHO membranes; format: biochemical
T2 construct: expressed in transfected cells; host or cells: CHO cells, membranes

HM74 [6] = target: T3, HM74 (Homo sapiens, UniProt P49019); assay: 35S-GTPγS binding assay, HM74-expressing CHO membranes; format: biochemical
T3 construct: expressed in transfected cells; host or cells: CHO cells, membranes

[7] = 35S-GTPγS binding assay, control membranes; format: biochemical, Chinese hamster; conditions: negative control
GPR81 [8] = target: T1, GPR81; assay: 35S-GTPγS binding assay, membranes of CHO cells expressing human GPR81; format: biochemical; set-up: expressed in transfected cells; host or cells: CHO-K1 (transient, pCIneo), membranes
Target sequence in this assay (Q9BXC0 whole entry): as the sequence (Q9BXC0 whole entry, species assumed) above

rat GPR81L = assay: GTPγS binding assay, rat GPR81L; format: biochemical; conditions: FIG. 19
Source text: (§1) The longer polypeptide sequence was termed rat GP[…]; the shorter polypeptide sequence was termed rat GP[…]. […] The forward primer, 5' [NT] ID NO:7), and the reverse primer, [NT] […] The forward primer, [NT] ID NO:9), and reverse primer, [NT]

rat GPR81S = assay: GTPγS binding assay, rat GPR81S; format: biochemical; conditions: FIG. 19
Source text: as §1

mouse GPR81L = target: T4, mouse GPR81L (Mus musculus, UniProt Q8C131); assay: GTPγS binding assay, mouse GPR81L; format: biochemical; conditions: FIG. 19
T4 construct: expressed in transfected cells; host or cells: CHO-K1 (transient, pCIneo), membranes
T4 sequence (Q8C131 with tags, fused parts or gaps): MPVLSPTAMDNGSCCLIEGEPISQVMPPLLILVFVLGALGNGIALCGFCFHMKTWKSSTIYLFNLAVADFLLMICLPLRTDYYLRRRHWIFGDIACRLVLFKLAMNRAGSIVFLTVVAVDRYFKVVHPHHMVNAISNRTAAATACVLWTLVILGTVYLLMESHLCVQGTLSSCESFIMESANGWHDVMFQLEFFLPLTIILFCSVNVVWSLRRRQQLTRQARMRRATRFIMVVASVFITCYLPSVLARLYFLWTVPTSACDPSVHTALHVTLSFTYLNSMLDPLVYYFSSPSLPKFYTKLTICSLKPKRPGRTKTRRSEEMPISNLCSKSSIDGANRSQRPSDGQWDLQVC
Source text: (§2) The longer polypeptide sequence was termed mouse GP[…]; the shorter polypeptide sequence was termed mouse GP[…].

mouse GPR81S = target: T5, mouse GPR81S (Mus musculus, UniProt Q8C131); assay: GTPγS binding assay, mouse GPR81S; format: biochemical; conditions: FIG. 19
T5 construct: expressed in transfected cells; host or cells: CHO-K1 (transient, pCIneo), membranes
T5 sequence (Q8C131 1-343): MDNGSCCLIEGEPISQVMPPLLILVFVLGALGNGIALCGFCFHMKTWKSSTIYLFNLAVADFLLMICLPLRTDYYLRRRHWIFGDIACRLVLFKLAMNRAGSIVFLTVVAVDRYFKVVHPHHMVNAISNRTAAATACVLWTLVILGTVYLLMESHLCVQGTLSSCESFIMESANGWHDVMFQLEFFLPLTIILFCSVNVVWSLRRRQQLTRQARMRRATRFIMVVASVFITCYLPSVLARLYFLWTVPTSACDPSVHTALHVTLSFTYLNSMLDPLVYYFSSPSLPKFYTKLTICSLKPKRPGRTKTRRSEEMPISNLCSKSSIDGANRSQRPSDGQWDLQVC
Source text: as §2

bovine GPR81 = assay: GTPγS binding assay, bovine GPR81; format: biochemical; conditions: FIG. 20
Source text: TAA GTC ACC AAT CC 3′ (SEQ ID NO:12), were designed based on the identified bovine GPR81 coding sequence and were used to amplify the bovine GPR81 coding region using bovine genomic DNA as template.

dog GPR81 = assay: GTPγS binding assay, dog GPR81; format: biochemical; conditions: FIG. 20
monkey GPR81 = assay: GTPγS binding assay, monkey GPR81; format: biochemical; conditions: FIG. 20
Source text: The forward primer, 5′ ACTAGAGAATTCGCCACCATGTACAACGGGTCGTGCTGCCGCAT 3′ (SEQ ID NO:15), and the reverse primer, 5′ ATGATAGCGGCCGCTCAGTGCCACTCAACAGTGTGGGGATC 3′ (SEQ ID NO:16), were designed based on the identified monkey GPR81 coding sequence and were used to amplify the monkey GPR81 coding region using monkey genomic DNA as template.

porcine GPR81 = assay: GTPγS binding assay, porcine GPR81; format: biochemical; conditions: FIG. 20

T3 sequence (P49019 whole entry): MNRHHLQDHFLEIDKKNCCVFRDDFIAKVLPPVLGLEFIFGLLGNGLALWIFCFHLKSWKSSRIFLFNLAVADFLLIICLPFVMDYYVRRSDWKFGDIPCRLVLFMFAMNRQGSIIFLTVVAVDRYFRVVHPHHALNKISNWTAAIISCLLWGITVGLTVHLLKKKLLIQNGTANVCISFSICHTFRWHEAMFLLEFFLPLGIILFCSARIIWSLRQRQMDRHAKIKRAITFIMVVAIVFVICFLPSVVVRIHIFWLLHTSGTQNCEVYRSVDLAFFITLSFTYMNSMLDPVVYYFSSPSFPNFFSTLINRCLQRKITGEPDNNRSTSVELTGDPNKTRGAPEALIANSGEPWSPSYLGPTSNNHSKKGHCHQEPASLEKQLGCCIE
T2 sequence (Q8TDS4 whole entry): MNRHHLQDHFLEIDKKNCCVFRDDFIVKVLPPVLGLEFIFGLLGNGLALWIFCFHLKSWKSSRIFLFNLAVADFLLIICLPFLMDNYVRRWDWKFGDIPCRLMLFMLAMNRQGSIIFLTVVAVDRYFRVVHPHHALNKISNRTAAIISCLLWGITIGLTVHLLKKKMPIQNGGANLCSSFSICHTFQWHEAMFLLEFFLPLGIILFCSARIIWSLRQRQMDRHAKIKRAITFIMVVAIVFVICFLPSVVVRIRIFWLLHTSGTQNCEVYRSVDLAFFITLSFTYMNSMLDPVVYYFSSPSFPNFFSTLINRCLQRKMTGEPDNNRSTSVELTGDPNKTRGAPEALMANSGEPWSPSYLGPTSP

In the case of O=C(O)C(F)(F)Cl [chlorodifluoroacetate (CDFA), chlorodifluoroacetate], the GPR81 agonist activity (GPR81 [1]) is reported as “yes” and the GPR81 agonist activity (GPR81 [1]; listed as chlorodifluoroacetate) is reported as “showed GPR81-agonist activity”.

For O=C(O)c1cccnc1 [nicotinic acid], the “inhibition of forskolin-induced β-gal expression in GPR81-expressing cells” value (GPR81 [2]) was “failed to inhibit; also recorded: not in cells expressing GPR81”, the “inhibition of forskolin-induced β-gal expression in HM74 expressing cells” value (HM74 [3]) was “inhibited forskolin-induced β-gal expression” and the “inhibition of forskolin-induced β-gal expression in control cells not expressing a GPCR” value [4] was “failed to inhibit”. The “activation of GPR81” value (GPR81 [5]) was “does not activate”.

With NCCCC(=O)O [γ-aminobutyric acid (GABA), γ-aminobutyric acid] the “stimulation of 35S-GTPγS binding in GPR81-expressing cells / cell membranes” value (GPR81 [1]) was “did not stimulate”, the GPR81 agonist activity (GPR81 [1]) was “no” and the GPR81 agonist activity (GPR81 [1]; listed as gamma-aminobutyric acid (GABA)) was “did not activate it”.

In the case of O=C([O-])CO.[Na+] [glycolic acid, sodium salt], the GPR81 agonist activity (GPR81 [1]; listed as glycolate, sodium salt) is reported as “demonstrated significant GPR81 agonist activity” and the GPR81 agonist activity (GPR81 [1]; sodium salt) is reported as “yes”.

In the case of N[C@@H](CCO)C(=O)O [L-homoserine], the GPR81 agonist activity (GPR81 [1]) is reported as “none of glucose, L-homoserine, or any L-amino acids tested activated GPR81 and no”.

In the case of C[C@H](O)C(=O)O [L-lactate], the “activation of HM74A-expressing membranes (35S-GTPγS binding)” value (HM74A) is reported as “did not activate”, the “activation of HM74-expressing membranes (35S-GTPγS binding)” value (HM74 [6]) is reported as “did not activate” and the “35S-GTPγS binding stimulation in control cells/membranes not expressing GPR81 or any GPCR” value [7] is reported as “did not activate”. For the same molecule, the “inhibition of forskolin-induced β-gal expression in GPR81-expressing cells” value (GPR81 [2]) was “inhibits forskolin-induced β-galactosidase expression”, the EC50 (GPR81 [2]; read-out: EC50, inhibition of forskolin-induced β-gal expression in GPR81-expressing cells) was ~3 mM and the “inhibition of forskolin-induced β-gal expression in HM74 expressing cells” value (HM74 [3]) was “did not inhibit”. For the same molecule, the “inhibition of forskolin-induced β-gal expression in control cells not expressing a GPCR” value [4] was “did not inhibit”, the “inhibition of forskolin-induced β-gal expression in control cells not expressing a GPCR” value ([4]; listed as lactate) was “not in cells not expressing GPR81” and the EC50 (GPR81 [8]; CHO membranes, read-out: EC50, activation of human GPR81 (35S-GTPγS binding)) was ~5 mM and 5 mM. The “receptor activation of GPR81” value (GPR81 [8]; at 1 mM concentration) was “capable of stimulating detectable receptor activation”.

For CC(=O)O [acetate], the GPR81 agonist activity (GPR81 [1]) was “neither acetate, pyruvate, formiate, nor glyoxylate activated GPR81 and no”.

In the case of O=CO [formiate], the GPR81 agonist activity (GPR81 [1]) is reported as “neither acetate, pyruvate, formiate, nor glyoxylate activated GPR81 and no”.

For O=C(O)C(Br)(Br)Br [tribromoacetate (TEA), tribromoacetate], the GPR81 agonist activity (GPR81 [1]) was “no”.

With CC(O)CC(=O)O (stereo not drawn) [β-hydroxybutyrate] the “activation of rat GPR81L” value (rat GPR81L) was “did not activate”, the “activation of rat GPR81S” value (rat GPR81S) was “did not activate” and the “activation of mouse GPR81L” value (mouse GPR81L) was “did not activate”. For the same molecule, the “activation of mouse GPR81S” value (mouse GPR81S) was “did not activate”, the “activation of bovine GPR81” value (bovine GPR81) was “did not activate” and the “activation of dog GPR81” value (dog GPR81) was “did not activate”. The “activation of monkey GPR81” value (monkey GPR81) was “did not activate”, the “activation of porcine GPR81” value (porcine GPR81) was “did not activate” and the “activation of human GPR81 (GTPγS binding)” value (GPR81 [8]) was “did not activate”. For the same molecule, the GPR81 agonist activity (GPR81 [1]) was “no”.

With C[C@@H](O)C(=O)O [D-lactate] the “efficacy as GPR81 agonist (comparison)” value (GPR81 [1]) was “less efficacious” and the GPR81 agonist activity (GPR81 [1]) was “demonstrated significant GPR81 agonist activity and yes”.

For CCC(O)C(=O)O (stereo not drawn) [α-hydroxybutyrate], the GPR81 agonist activity (GPR81 [1]) was “yes”.

With O=CC(=O)O [glyoxylate] the GPR81 agonist activity (GPR81 [1]) was “neither acetate, pyruvate, formiate, nor glyoxylate activated GPR81 and no”.

For O=C(O)CCCO [γ-hydroxybutyric acid (GHB), γ-hydroxybutyric acid], the “35S-GTPγS binding stimulation in control cells/membranes not expressing GPR81 or any GPCR” value [7] was “not in the control cells; also recorded: not in cells not expressing GPR81”, the “stimulation of 35S-GTPγS binding in GPR81-expressing cells” value (GPR81 [1]; at 1 mM and 5 mM) was “significantly stimulated” and the “stimulation of 35S-GTPγS binding in GPR81-expressing cells / cell membranes” value (GPR81 [1]) was “stimulates”. For the same molecule, the GPR81 agonist activity (GPR81 [1]) was “yes” and the GPR81 agonist activity (GPR81 [1]; listed as GHB) was “activated GPR81”.

For CC(Cl)(Cl)C(=O)[O-].[Na+] [2,2-dichloropropionic acid, sodium salt], the GPR81 agonist activity (GPR81 [1]) was “no”.

For O=C(O)C(F)F [difluoroacetate], the GPR81 agonist activity (GPR81 [1]) was “showed GPR81-agonist activity”.

In the case of O=C(O)C(F)(F)F [trifluoroacetate (TFA), trifluoroacetate], the GPR81 agonist activity (GPR81 [1]) is reported as “yes” and the GPR81 agonist activity (GPR81 [1]; listed as trifluoroacetate) is reported as “showed GPR81-agonist activity”.

With CC(C)(O)C(=O)[O-].[Na+] [sodium hydroxyisobutyrate] the GPR81 agonist activity (GPR81 [1]) was “yes” and the GPR81 agonist activity (GPR81 [1]; listed as hydroxy-iso-butyrate) was “demonstrated significant GPR81 agonist activity”.

With CC(Cl)C(=O)Cl (centres unmarked) [2-chloropropinoyl chloride] the GPR81 agonist activity (GPR81 [1]) was “showed GPR81-agonist activity and yes”.

In the case of CC(Cl)C(=O)[O-].[Na+] (centres unmarked) [2-chloropropionic acid, sodium salt], the GPR81 agonist activity (GPR81 [1]; listed as 2-chloropropinoate, sodium salt) is reported as “showed GPR81-agonist activity” and the GPR81 agonist activity (GPR81 [1]; sodium salt) is reported as “yes”.
